Reference: patent publication US20240216344A1, “THIAZOLIDINEDIONE ANALOGS FOR THE TREATMENT OF NAFLD AND METABOLIC DISEASES” (Cirius Therapeutics, Inc., priority 2019, published 2024)

System: patients with biopsy-proven NASH with fibrosis and no cirrhosis
Test: EMMINENCE Phase 2b trial, markers of glucose metabolism, liver enzymes, fibrosis and apoptosis biomarkers
Type: in vivo, human
Conditions: for Glucose, LS mean change from baseline to 6 months / Glucose, LS mean difference vs placebo at 6 months / HOMA IR, LS mean change from baseline to 6 months / HOMA IR, LS mean difference vs placebo at 6 months / HgBA1C, LS mean change from baseline to 6 months / HgBA1C, LS mean difference vs placebo at 6 months / Insulin, LS mean change from baseline to 6 months / Insulin, LS mean difference vs placebo at 6 months: patients with HbA1C >7%
Description: Study Design: EMMINENCE was a randomized, double-blind evaluation of three oral daily doses of MSDC-0602K (62.5 mg, 125 mg and 250 mg) or placebo given for 12 months to adult patients with biopsy-proven NASH with fibrosis and no cirrhosis. The primary efficacy endpoint was assessed at 12 months. Clinic visits were conducted at baseline, 1, 2, 3, 6, 9, and 12 months, followed 2 weeks later by a safety visit. An interim analysis of safety and efficacy not related to the primary and secondary endpoints was conducted when 6 month data were available for 328 patients (see Example 5, above.) Interim results were provided only as summary statistics to avoid any unmasking of the study team or sponsor.
If no usable liver biopsy was available within 9 months prior to screening, a percutaneous liver biopsy was performed in patients with AST≥20 U/L and FibroScan CAP score ≥270 db/m and kPa≥8.5. Digitized slides were read by a single expert histopathologist according to NASH Clinical Research Network criteria. Baseline biopsies were read first for study qualification and a second time mixed randomly among 12-month biopsies. Fasting blood samples for routine central laboratory analyses were collected at each visit, and frozen samples collected at selected visits for biomarker assays.
Efficacy endpoints: The primary efficacy endpoint was hepatic histological improvement in NAS defined as ≥2-point NAS decrease with a ≥1-point reduction in either ballooning or lobular inflammation and no increase in fibrosis stage at 12 months. Secondary efficacy endpoints included (1) NASH resolution defined as hepatocellular ballooning score of 0 and lobular inflammation score of 0-1 with no increase in fibrosis stage at 12 months, (2) fibrosis improvement defined as ≥1-stage decrease in fibrosis with no worsening of lobular inflammation or hepatocellular ballooning, (3) change from baseline in NAFLD activity score (NAS) and each one of its components (steatosis, lobular inflammation and ballooning) at 12 months, and (4) change from baseline in fibrosis score at 12 months. Exploratory efficacy endpoints included shifts in the central histopathologist's NASH diagnosis confirmation, and changes from baseline to 12 months in markers of glycemic control and insulin sensitivity, liver function/injury, and apoptosis and liver fibrosis.
Using a modified intent-to-treat approach, treated patients were included for analysis in their randomly-assigned treatment groups. Participation of sites with serious GCP or quality concerns were terminated and their data excluded from the analyses. Post-baseline measures through 14 days after the last study drug dose were included. No errors in treatment assignment occurred. The central histopathologist's re-read of baseline biopsies was used as baseline. Patients who no longer qualified on re-read were included in the analyses. Each active treatment group was compared to placebo with respect to the primary and secondary histopathologic endpoints using logistic regression including adjustment for randomization strata (diabetes mellitus, baseline fibrosis F1 versus F2/F3), and ordinal baseline NAS. Stratification-adjusted risk differences adjusted similarly are provided. The primary analyses included only observed data; sensitivity analyses included multiply-imputing missing follow-up and considering missing follow-up as a non-responder. Each active dose was compared to placebo regarding changes in NASH CRN scores using analysis of covariance with adjustment for age, sex, diabetes mellitus, Vitamin E≥400 IU, baseline fibrosis F1 versus F2/F3, and the baseline value. Changes in laboratory markers from baseline to 6 months and to 12 months were analyzed similarly.
Post-hoc analyses: Each active dose was compared to placebo regarding the proportion where the pathologist's NASH diagnosis shifted from confirmed at baseline (re-read) to not confirmed at month 12 using logistic regression. […]

COc1cccc(C(=O)COc2ccc(CC3SC(=O)NC3=O)cc2)c1 (stereo not shown) [MSDC-0602K]
proportion of patients with baseline ALT above 19 (women) and 30 (men) U/L whose levels were normal at 12 months (62.5 mg): 10.6% | proportion of patients with baseline ALT above 19 (women) and 30 (men) U/L whose levels were normal at 12 months (125 mg): 20.8% | proportion of patients with baseline ALT above 19 (women) and 30 (men) U/L whose levels were normal at 12 months (250 mg): 33.3% | proportion of patients with baseline ALT above 19 (women) and 30 (men) U/L whose levels were normal at 12 months (combined 125 and 250 mg dose groups): 27.2% | Glucose, LS mean change from baseline to 6 months (62.5 mg): -2.42 mmol/L | Glucose, LS mean difference vs placebo at 6 months (62.5 mg): -1.18 mmol/L | HOMA IR, LS mean change from baseline to 6 months (62.5 mg): −6.472 | HOMA IR, LS mean difference vs placebo at 6 months (62.5 mg): −1.964 | HgBA1C, LS mean change from baseline to 6 months (62.5 mg): −0.61% | HgBA1C, LS mean difference vs placebo at 6 months (62.5 mg): −0.18 % | Insulin, LS mean change from baseline to 6 months (62.5 mg): −7.724 uIU/mL | Insulin, LS mean difference vs placebo at 6 months (62.5 mg): −2.242 uIU/mL | Glucose, LS mean change from baseline to 6 months (125 mg): -3.48 mmol/L | Glucose, LS mean difference vs placebo at 6 months (125 mg): -2.23 mmol/L | HOMA IR, LS mean change from baseline to 6 months (125 mg): −8.178 | HOMA IR, LS mean difference vs placebo at 6 months (125 mg): −3.669 | HgBA1C, LS mean change from baseline to 6 months (125 mg): −1.43% | HgBA1C, LS mean difference vs placebo at 6 months (125 mg): −1.01% | Insulin, LS mean change from baseline to 6 months (125 mg): −8.208 uIU/mL | Insulin, LS mean difference vs placebo at 6 months (125 mg): −2.726 uIU/mL | Glucose, LS mean change from baseline to 6 months (250 mg): -3.24 mmol/L | Glucose, LS mean difference vs placebo at 6 months (250 mg): -1.99 mmol/L | HOMA IR, LS mean change from baseline to 6 months (250 mg): −8.197 | HOMA IR, LS mean difference vs placebo at 6 months (250 mg): −3.689 | HgBA1C, LS mean change from baseline to 6 months (250 mg): −1.00% | HgBA1C, LS mean difference vs placebo at 6 months (250 mg): −0.58% | Insulin, LS mean change from baseline to 6 months (250 mg): −10.066 uIU/mL | Insulin, LS mean difference vs placebo at 6 months (250 mg): −4.584 uIU/mL
